Reference: US20260365671A1, “HETEROCYCLIC COMPOUND” (Takeda Pharmaceutical Company Limited, priority 2022, published 2026)

How the values were obtained:
[1] = biological target: T1, NLRP3 inflammasome (Homo sapiens, UniProt Q96P20); assay: IL-1β TR-FRET assay (THP-1 cells differentiated to macrophages with IFN-γ, LPS primed, ATP activated; HTRF); type: cell-based; conditions: THP-1 macrophages, 50 ng/mL LPS priming, compound 30 min, 20 mM ATP 2 hours
T1 construct: IL-1beta HTRF
Procedure, shortened: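 IL-1β release was read by HTRF after 16–24 h antibody incubation at room temperature, using supernatants from THP-1-derived macrophages (IFN-γ 25 ng/mL, LPS 50 ng/mL priming) given compound 30 min and then 20 mM ATP for 2 h. % inhibition versus concentration was fitted logistically for IC50.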

[2] = test system: NF-κB pathway; assay: TNF-α assay (THP-1 cells differentiated to macrophages with IFN-γ, NF-κB pathway activated with LPS; ELISA); type: cell-based, Human; conditions: compound 30 min, 50 ng/mL LPS 3 hours
Procedure, shortened: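 TNF-α release measured by ELISA after 3 h stimulation with 50 ng/mL LPS, following 30 min compound pretreatment (37 °C, no FBS). Cells were THP-1 macrophages primed with IFN-γ 25 ng/mL for 24 h. IC50 derived by logistic curve fit.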

[3] = Homo sapiens, THP-1, THP-1 macrophages

T1 sequence (Q96P20 whole entry): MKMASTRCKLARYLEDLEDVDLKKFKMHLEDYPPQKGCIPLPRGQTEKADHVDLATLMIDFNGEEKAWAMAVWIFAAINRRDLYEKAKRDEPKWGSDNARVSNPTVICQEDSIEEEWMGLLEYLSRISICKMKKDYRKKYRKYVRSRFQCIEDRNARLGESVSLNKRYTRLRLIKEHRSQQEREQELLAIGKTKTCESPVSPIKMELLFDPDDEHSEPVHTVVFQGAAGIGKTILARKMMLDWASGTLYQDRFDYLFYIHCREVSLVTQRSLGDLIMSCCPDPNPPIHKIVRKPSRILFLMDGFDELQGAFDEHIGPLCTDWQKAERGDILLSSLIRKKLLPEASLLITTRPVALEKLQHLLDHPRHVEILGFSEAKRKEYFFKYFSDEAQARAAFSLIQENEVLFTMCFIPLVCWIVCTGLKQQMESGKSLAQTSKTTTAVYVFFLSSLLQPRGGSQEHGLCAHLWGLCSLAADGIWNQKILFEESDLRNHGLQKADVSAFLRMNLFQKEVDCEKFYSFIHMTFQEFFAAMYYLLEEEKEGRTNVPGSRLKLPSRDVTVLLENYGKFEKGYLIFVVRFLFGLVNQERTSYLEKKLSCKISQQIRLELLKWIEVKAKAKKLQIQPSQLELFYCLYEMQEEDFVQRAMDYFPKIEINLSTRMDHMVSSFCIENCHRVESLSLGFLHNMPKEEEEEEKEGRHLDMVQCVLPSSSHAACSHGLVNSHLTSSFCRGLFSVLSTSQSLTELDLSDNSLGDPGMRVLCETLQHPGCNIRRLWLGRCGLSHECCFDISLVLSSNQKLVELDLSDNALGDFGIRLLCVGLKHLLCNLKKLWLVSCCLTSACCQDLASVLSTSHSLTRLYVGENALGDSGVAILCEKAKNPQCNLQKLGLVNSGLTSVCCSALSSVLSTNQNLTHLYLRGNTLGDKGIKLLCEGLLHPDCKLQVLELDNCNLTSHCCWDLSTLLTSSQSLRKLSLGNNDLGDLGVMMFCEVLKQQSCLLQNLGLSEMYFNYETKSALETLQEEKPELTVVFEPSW

SMILES | IC50 [1] [nM] | IC50 [2, 3] [µM] | IC50 ([2]; THP-1 macrophages) [µM]
Cc1cc(C)c(-n2cc3sc(N[C@H]4C[C@H](F)CN(C)C4)nc3n2)c(O)c1 [Example 180, 2-(5-{[(3S,5S)-5-fluoro-1-methylpiperidin-3-yl]amino}-2H-pyrazolo[3,4-d][1,3]thiazol-2-yl)-3,5-dimethylphenol] | 4200 | > 30 | 
CCN1C[C@@H](F)[C@@H](Nc2nc3nn(-c4c(C)cc(C)cc4O)cc3s2)C1 (racemic) [Example 23, racemic mixture of 2-(5-{[(3R,4S)-1-ethyl-4-fluoropyrrolidin-3-yl]amino}-2H-pyrazolo[3,4-d][1,3]thiazol-2-yl)-3,5-dimethylphenol and 2-(5-{[(3S,4R)-1-ethyl-4-fluoropyrrolidin-3-yl]amino}-2H-pyrazolo[3,4-d][1,3]thiazol-2-yl)-3,5-dimethylphenol] | 210 | > 30 | 
Cc1cc(C)c(-n2cc3sc(N[C@H]4COC[C@@H]4F)nc3n2)c(O)c1 (racemic) [Example 121, racemic mixture of 2-(5-{[(3R,4S)-4-fluorooxolan-3-yl]amino}-2H-pyrazolo[3,4-d][1,3]thiazol-2-yl)-3,5-dimethylphenol and 2-(5-{[(3S,4R)-4-fluorooxolan-3-yl]amino}-2H-pyrazolo[3,4-d][1,3]thiazol-2-yl)-3,5-dimethylphenol] | 590 | > 10 | 
COc1cc(C)c(-n2cc3sc(N[C@@H]4C[C@@H](F)CN(C)C4)nc3n2)c(O)c1 [Example 43, 2-(5-{[(3R,5R)-5-fluoro-1-methylpiperidin-3-yl]amino}-2H-pyrazolo[3,4-d][1,3]thiazol-2-yl)-5-methoxy-3-methylphenol] | 28 | > 30 | 
COCC(O)CNc1nc2nn(-c3c(C)cc(C)cc3O)cc2s1 (stereo not shown) [Example 166, 2-{5-[(2-hydroxy-3-methoxypropyl)amino]-2H-pyrazolo[3,4-d][1,3]thiazol-2-yl}-3,5-dimethylphenol] | 760 | > 30 | 
Cc1cc(C)c(-n2cc3sc(NCC(O)C(F)F)nc3n2)c(O)c1 (stereo not shown) [Example 171, 2-{5-[(3,3-difluoro-2-hydroxypropyl)amino]-2H-pyrazolo[3,4-d][1,3]thiazol-2-yl}-3,5-dimethylphenol] | 160 | > 10 | 
Cc1cc(C)c(-n2cc3sc(NCC(F)(F)CO)nc3n2)c(O)c1 [Example 152, 2-{5-[(2,2-difluoro-3-hydroxypropyl)amino]-2H-pyrazolo[3,4-d][1,3]thiazol-2-yl}-3,5-dimethylphenol] | 280 | > 30 | 
CC(=O)NCCCNc1nc2nn(-c3c(C)cc(C)cc3O)cc2s1 [Example 56, N-(3-{[2-(2-hydroxy-4,6-dimethylphenyl)-2H-pyrazolo[3,4-d][1,3]thiazol-5-yl]amino}propyl) acetamide] | 230 | > 30 | 
Cc1cc(C)c(-n2cc3sc(NCCC(C)(C)O)nc3n2)c(O)c1 [Example 55, 2-{5-[(3-hydroxy-3-methylbutyl)amino]-2H-pyrazolo[3,4-d][1,3]thiazol-2-yl}-3,5-dimethylphenol] | 1400 | > 10 | 
Cc1cc(F)cc(O)c1-n1cc2sc(N[C@@H]3CCCN(C)C3)nc2n1 [Example 5, 5-fluoro-3-methyl-2-(5-{[(3R)-1-methylpiperidin-3-yl]amino}-2H-pyrazolo[3,4-d][1,3]thiazol-2-yl)phenol] | 15 | > 30 | 
COc1cc(C)c(-n2cc3sc(N[C@@H]4C[C@@H](F)CN(C5CC5)C4)nc3n2)c(O)c1 [Example 174, 2-(5-{[(3R,5R)-1-cyclopropyl-5-fluoropiperidin-3-yl]amino}-2H-pyrazolo[3,4-d][1,3]thiazol-2-yl)-5-methoxy-3-methylphenol] | 110 | > 30 | 
Cc1cc(C)c(-n2cc3sc(NC4CCN(C(=O)OCC(Cl)(Cl)Cl)C4)nc3n2)c(O)c1 (stereo not shown) [Example 69, 2,2,2-trichloroethyl 3-{[2-(2-hydroxy-4,6-dimethylphenyl)-2H-pyrazolo[3,4-d][1,3]thiazol-5-yl]amino}pyrrolidine-1-carboxylate] | 250 | > 10 | 
Cc1cc(C)c(-n2cc3sc(N[C@H]4CN(C(=O)C(C)(C)O)C[C@@H]4F)nc3n2)c(O)c1 (racemic) [Example 123, racemic mixture of 1-[(3R,4R)-3-fluoro-4-{[2-(2-hydroxy-4,6-dimethylphenyl)-2H-pyrazolo[3,4-d][1,3]thiazol-5-yl]amino}pyrrolidin-1-yl]-2-hydroxy-2-methylpropan-1-one and 1-[(3S,4S)-3-fluoro-4-{[2-(2-hydroxy-4,6-dimethylphenyl)-2H-pyrazolo[3,4-d][1,3]thiazol-5-yl]amino}pyrrolidin-1-yl]-2-hydroxy-2-methylpropan-1-one] | 390 | > 30 | 
Cc1cc(C)c(-n2cc3sc(NC(C)C(C)O)nc3n2)c(O)c1 (stereo not shown) [Example 140, 2-{5-[(3-hydroxybutan-2-yl)amino]-2H-pyrazolo[3,4-d] [1,3]thiazol-2-yl}-3,5-dimethylphenol] | 400 | > 30 | 
CCc1cc(C)cc(O)c1-n1cc2sc(NC[C@@H](C)O)nc2n1 [Example 87, 3-ethyl-2-(5-{[(2R)-2-hydroxypropyl]amino}-2H-pyrazolo[3,4-d][1,3]thiazol-2-yl)-5-methylphenol] | 96 | > 30 | 
CCN1C[C@H](F)C[C@@H](Nc2nc3nn(-c4c(O)cc(Cl)cc4C(F)F)cc3s2)C1 [Example 78, 5-chloro-3-(difluoromethyl)-2-(5-{[(3R,5R)-1-ethyl-5-fluoropiperidin-3-yl]amino}-2H-pyrazolo[3,4-d][1,3]thiazol-2-yl)phenol] | 4.3 | > 10 | 
Cc1cc(C)c(-n2cc3sc(N[C@@H]4CC[C@H](O)C4)nc3n2)c(O)c1 [Example 47, 2-(5-{[(1R,3S)-3-hydroxycyclopentyl]amino}-2H-pyrazolo[3,4-d][1,3]thiazol-2-yl)-3,5-dimethylphenol or 2-(5-{[(1S,3R)-3-hydroxycyclopentyl]amino}-2H-pyrazolo[3,4-d][1,3]thiazol-2-yl)-3,5-dimethylphenol (tR2)] | 1200 |  | > 10
Cc1cc(C)c(-n2cc3sc(NC45CCC(O)(CC4)C5)nc3n2)c(O)c1 [Example 57, 4-{[2-(2-hydroxy-4,6-dimethylphenyl)-2H-pyrazolo[3,4-d][1,3]thiazol-5-yl]amino}bicyclo[2.2.1]heptan-1-ol] | 130 | > 10 | 
CCN1C[C@H](F)C[C@@H](Nc2nc3nn(-c4c(O)cc(F)cc4C(F)F)cc3s2)C1 [Example 24, 3-(difluoromethyl)-2-(5-{[(3R,5R)-1-ethyl-5-fluoropiperidin-3-yl]amino}-2H-pyrazolo[3,4-d][1,3]thiazol-2-yl)-5-fluorophenol] | 16 | > 10 | 
Cc1cc(C)c(-n2cc3sc(N[C@H]4CN(C)C[C@@H]4F)nc3n2)c(O)c1 [Example 80, 2-(5-{[(3S,4S)-4-fluoro-1-methylpyrrolidin-3-yl]amino}-2H-pyrazolo[3,4-d][1,3]thiazol-2-yl)-3,5-dimethylphenol] | 37 | > 30 | 
CO[C@@H]1C[C@@H](Nc2nc3nn(-c4c(C)cc(C)cc4O)cc3s2)CN(C)C1 [Example 76] | 1600 | > 30 | 
Cc1cc(C)c(-n2cc3sc(N[C@@H]4C[C@@H](C(F)F)CN(C)C4)nc3n2)c(O)c1 [Example 41, 2-(5-{[(3R,5R)-5-(difluoromethyl)-1-methylpiperidin-3-yl]amino}-2H-pyrazolo[3,4-d][1,3]thiazol-2-yl)-3,5-dimethylphenol] | 1500 | > 10 | 
Cc1cnc(-n2nc3nc(N[C@@H]4CCCN(C)C4)sc3c2C)c(O)c1 [Example 58, 5-methyl-2-(3-methyl-5-{[(3R)-1-methylpiperidin-3-yl]amino}-2H-pyrazolo[3,4-d][1,3]thiazol-2-yl)pyridin-3-ol] | 2600 | > 30 | 
Cc1cc(C)c(-n2cc3sc(N[C@H]4CNC[C@H](F)C4)nc3n2)c(O)c1 [Example 62, 2-(5-{[(3R,5R)-5-fluoropiperidin-3-yl]amino}-2H-pyrazolo[3,4-d][1,3]thiazol-2-yl)-3,5-dimethylphenol] | 120 | > 10 | 
Cc1cc(C)c(-n2cc3sc(NCCN4CCOCC4)nc3n2)c(O)c1 [Example 54, 3,5-dimethyl-2-(5-{[2-(morpholin-4-yl)ethyl]amino}-2H-pyrazolo[3,4-d][1,3]thiazol-2-yl)phenol] | 1100 | > 30 | 
Cc1cc(O)c(-n2cc3sc(NC45CCC(O)(CC4)C5)nc3n2)c(C2CC2(F)F)c1 (stereo not shown) [Example 149, 4-({2-[2-(2,2-difluorocyclopropyl)-6-hydroxy-4-methylphenyl]-2H-pyrazolo[3,4-d][1,3]thiazol-5-yl}amino)bicyclo[2.2.1]heptan-1-ol] | 66 | > 30 | 
Cc1cc(C)c(-n2cc3sc(N[C@H]4CC[C@H](O)CC4)nc3n2)c(O)c1 [Example 25, 2-{5-[(trans-4-hydroxycyclo-hexyl)amino]-2H-pyrazolo[3,4-d][1,3]thiazol-2-yl}-3,5-dimethylphenol] | 350 | > 10 | 
Cc1cc(C)c(-n2cc3sc(NC4COCC4O)nc3n2)c(O)c1 (stereo not shown) [Example 159, 4-{[2-(2-hydroxy-4,6-dimethylphenyl)-2H-pyrazolo[3,4-d][1,3]thiazol-5-yl]amino}oxolan-3-ol] | 260 | > 30 | 
Cc1cc(C)c(-n2cc3sc(NCC(F)F)nc3n2)c(O)c1 [Example 146, 2-{5-[(2,2-difluoroethyl)amino]-2H-pyrazolo[3,4-d][1,3]thiazol-2-yl}-3,5-dimethylphenol] | 380 | > 30 | 
